SMILES strings stand for the structures. Read-outs that look alike come from different tables or passages of the source.

We go through eight compounds from PMC8310135 (Viruses, 2021).

One data set has as its system rLUJV/ZsG. The data set can be described thus: microbe, parasite or virus in culture. The format is cell-based, Lujo virus. Conditions: for activity at 0.05 µM / activity at 0.5 µM / activity at 5 µM: Huh-7, read-out: Relative ZsG (%) Mean; for activity at 0.05 µM: 50 nM; for activity at 0.5 µM: 500 nM; for activity at 5 µM: 5000 nM.
Another data set relates to wt LUJV. The format is cell-based, Lujo virus.
The subject of data set [1] is JUNV. As to conditions: cited from earlier work.
A further data set can be described thus: in vitro. Conditions: human; for CC50: CC50 (50% cell cytotoxicity concentration).
The next data set deals with Huh7 cells. Conditions: human.
In data set [2] the test system is LASV. Conditions: read-out: EC50 for LASV inhibition; cited from earlier work.
The subject of data set [3] is LASV. Conditions: read-out: EC50 against LASV; cited from earlier work.
The test system of another data set is LUJV. Conditions: cited from earlier work.
Data set [4] has as its system LASV. Conditions: read-out: EC50 reported for LASV; cited from earlier work.
The subject of data set [5] is JUNV. Conditions: read-out: EC50 reported for JUNV; cited from earlier work.
The mark [6] stands for this setting: Mammarenavirus lujoense, Huh-7, read-out: EC50 (concentration inhibiting ZsG expression by 50%).
The mark [7] stands for this setting: read-out: EC50 (concentration inhibiting ZsG expression by 50%).

A word on the viability: it is a read-out of living cells in per cent, often relative to untreated cells. The CC50 is the concentration at which the toxic effect on the cells reaches its halfway point. High values mean better tolerance by the cells, low ones harm at low concentration. Regarding `CC[C@H](CC#N)OC(=O)N[C@@H](C)c1cccc(NC(=O)Nc2ccc(-c3cnco3)c(OC)c2)c1` [AVN-944], the EC50 with rLUJV/ZsG (setting [6]) was determined as 200 ± 90 nM. Also, in the data set on rLUJV/ZsG (Mammarenavirus lujoense), the activity at 0.05 µM was found to be 43%, the activity at 0.5 µM is 4% and the activity at 5 µM is 1%. Further, the EC50 in the data set on rLUJV/ZsG (setting [7]) amounted to 201 ± 89 nM. Also, in the data set on wt LUJV, the “reduction of wt LUJV viral titers” value was “approximately 4 logs”. For the same compound, the “reduction of JUNV titers” value in the data set on JUNV [1] is > 90%. Also, in “in vitro”, the viability is > 75%, the viability at 0.05 µM came out at 103%, the viability at 0.5 µM was determined as 97% and the viability at 5 µM amounted to 64%. For the same compound, the CC50 in the data set “in vitro” was > 12500 nM.
In the case of `O=C(Nc1ccc([N+](=O)[O-])cc1Cl)c1cc(Cl)ccc1O` [Niclosamide], the “SI (selectivity index, CC50 divided by EC50)” value with rLUJV/ZsG was 3.2. The EC50 in the data set with rLUJV/ZsG (setting [6]) was 90 nM. In addition, in the data set with rLUJV/ZsG (Mammarenavirus lujoense), the activity at 0.05 µM was 30%, the activity at 0.5 µM worked out at 2% and the activity at 5 µM worked out at 2%. Further, the EC50 in the data set with rLUJV/ZsG (setting [7]) was 85 ± 29 nM. Also, the 50% cytotoxic concentration (CC50) in the data set on Huh7 cells was 272 ± 34 nM. For the same compound, in the data set on LASV [2], the EC50 is 80 nM. In the data set “in vitro”, the viability at 0.05 µM was determined as 77%; the viability at 0.5 µM turned out to be 2%; the viability at 5 µM amounted to 1%; the midpoint of cytotoxicity, the CC50, lay at 270 nM.
In the case of `Cc1cccc(/C=N/Nc2cc(N3CCOCC3)nc(OCCc3ccccn3)n2)c1` [Apilimod], the EC50 with rLUJV/ZsG (setting [6]) stood at 1440 ± 600 nM. Also, in the data set on rLUJV/ZsG (Mammarenavirus lujoense), the activity at 0.05 µM came to 91%, the activity at 0.5 µM was determined as 45% and the activity at 5 µM came out at 24%. Moreover, the EC50 in the data set with rLUJV/ZsG (setting [7]) turned out to be 1440 ± 637 nM. The “reduction of wt LUJV viral titers” value in the data set with wt LUJV is reported as “approximately 4 logs”. In the data set with LASV [2], the EC50 is 50 nM. For the same compound, in “in vitro”, the viability was > 75%, the viability at 0.05 µM came to 130%, the viability at 0.5 µM was found to be 115% and the viability at 5 µM was 80%. This compound also returned a CC50 in “in vitro” of 14400 ± 3240 nM.
Turning to `C[C@@H](c1nc(-c2ccc(C#N)cc2)cs1)[C@](O)(Cn1cncn1)c1cc(F)ccc1F` [Isavucanazole], in the data set with rLUJV/ZsG, the “SI (selectivity index, CC50 divided by EC50)” value worked out at 2.1. The EC50 with rLUJV/ZsG (setting [6]) is 6100 ± 900 nM. In addition, in the data set on rLUJV/ZsG (Mammarenavirus lujoense), the activity at 0.05 µM worked out at 73%, the activity at 0.5 µM turned out to be 75% and the activity at 5 µM is 34%. Moreover, the EC50 with rLUJV/ZsG (setting [7]) was 6110 ± 926 nM. Further, the EC50 with LASV [3] is 1200 nM. Further, the “inhibition of LUJV” value in the data set on LUJV is recorded as “did not inhibit”. Besides, in “in vitro”, the viability at 0.05 µM turned out to be 114%, the viability at 0.5 µM stood at 121%, the viability at 5 µM worked out at 75% and the CC50 is 12700 ± 3970 nM.
In the case of `Nc1ccn([C@@H]2O[C@H](CO)[C@@H](O)[C@H]2F)c(=O)n1` [2′-deoxy-2′-fluorocytidine (2-dFC), 2′-deoxy-2′-fluorocytidine], in the data set with rLUJV/ZsG (setting [6]), the EC50 is 540 ± 210 nM. In addition, in the data set on rLUJV/ZsG (Mammarenavirus lujoense), the activity at 0.05 µM came to 90%, the activity at 0.5 µM was 27% and the activity at 5 µM came to 2%. The EC50 in the data set with rLUJV/ZsG (setting [7]) worked out at 533 ± 205 nM. In the data set with wt LUJV, the “reduction of wt LUJV viral titers” value is “approximately 4 logs”. Moreover, in “in vitro”, the viability was > 75%, the viability at 0.05 µM was determined as 117%, the viability at 0.5 µM is 98% and the viability at 5 µM is 105%. Further, the CC50 in the data set “in vitro” is > 50000 nM.
As to `NC(=O)c1ncn([C@@H]2O[C@H](CO)[C@@H](O)[C@H]2O)n1` [Ribavirin], in the data set with rLUJV/ZsG (setting [6]), the EC50 was determined as 11100 ± 1400 nM. In the data set on rLUJV/ZsG (Mammarenavirus lujoense), the activity at 0.05 µM came out at 94%, the activity at 0.5 µM was 73% and the activity at 5 µM is 63%. Further, the EC50 in the data set with LASV [4] was 2470 nM. The EC50 in the data set on JUNV [5] was 18300 nM. For the same compound, in “in vitro”, the viability at 0.05 µM came to 124%, the viability at 0.5 µM was found to be 122%, the viability at 5 µM is 133% and the CC50 was > 50000 nM.
For `Cc1c(-c2ccc(-c3ccccc3F)cc2)nc2ccc(F)cc2c1C(=O)O` [Brequinar], the EC50 with rLUJV/ZsG (setting [6]) amounted to 110 ± 20 nM. Also, in the data set on rLUJV/ZsG (Mammarenavirus lujoense), the activity at 0.05 µM was 27%, the activity at 0.5 µM was 2% and the activity at 5 µM worked out at 2%. Moreover, in the data set on rLUJV/ZsG (setting [7]), the EC50 turned out to be 109 ± 15 nM. In addition, the “reduction of wt LUJV viral titers” value with wt LUJV was “approximately 4 logs”. Besides, in “in vitro”, the viability was > 75%, the viability at 0.05 µM was 113%, the viability at 0.5 µM stood at 85% and the viability at 5 µM was 67%. For the same compound, in “in vitro”, the CC50 is > 12500 nM.
On to `O=C(NCCCNc1nc(Nc2cccc(NC(=O)N3CCCC3)c2)ncc1I)c1cccs1` [BX-795], for which the EC50 in the data set on rLUJV/ZsG (setting [6]) worked out at 600 ± 270 nM. Also, in the data set on rLUJV/ZsG (Mammarenavirus lujoense), the activity at 0.05 µM is 80%, the activity at 0.5 µM was 41% and the activity at 5 µM was 9%. Further, the EC50 with rLUJV/ZsG (setting [7]) is 598 ± 274 nM. Also, the “reduction of wt LUJV viral titers” value with wt LUJV is reported as “approximately 4 logs”. The same compound gave a CC50 in the data set with Huh7 cells of 9910 ± 1090 nM. In addition, in “in vitro”, the viability was > 75%, the viability at 0.05 µM amounted to 128%, the viability at 0.5 µM turned out to be 105% and the viability at 5 µM is 60%. In addition, in the data set “in vitro”, it took 9910 ± 1090 nM to reach half-maximal cytotoxicity (CC50).
